Experimental data reported in the supplement of paper PMC10307832.

What was measured:
Assay in all cases: relative viability (nuclei count vs DMSO), 5 days (fraction); higher = more cells survive
NCI-H661 = test system: NCI-H661
Method in brief: (§1)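 Values are medians from duplicate plates. Each reflects relative viability, defined as the nuclei count of treated wells over that of vehicle wells. Lung cancer cell lines in 1536-well plates were pin-tool dosed one day after seeding with one drug alone or with a fixed anchor-drug dose plus five library-drug doses (not always all listed) in √10 steps, then fixed, stained and imaged at 4× after 5 days.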

NCI-H2087 = test system: NCI-H2087
Method in brief: as §1

UMC-11 = test system: UMC-11
Method in brief: as §1

NCI-H596 = test system: NCI-H596
Method in brief: as §1

NCI-H1666 = test system: NCI-H1666
Method in brief: as §1

LCLC-97TM1 = test system: LCLC-97TM1
Method in brief: as §1

HCC-15 = test system: HCC-15
Method in brief: as §1

NCI-H1944 = test system: NCI-H1944
Method in brief: as §1

SK-MES-1 = test system: SK-MES-1
Method in brief: as §1

NCI-H1651 = test system: NCI-H1651
Method in brief: as §1

NCI-H2342 = test system: NCI-H2342
Method in brief: as §1

NCI-H650 = test system: NCI-H650
Method in brief: as §1

BEN = test system: BEN
Method in brief: as §1

LC-2-ad = test system: LC-2-ad
Method in brief: as §1

PC-3 [JPC-3] = test system: PC-3 [JPC-3]
Method in brief: as §1

NCI-H838 = test system: NCI-H838
Method in brief: as §1

NCI-H322M = test system: NCI-H322M
Method in brief: as §1

ChaGo-K-1 = test system: ChaGo-K-1
Method in brief: as §1

LXF-289 = test system: LXF-289
Method in brief: as §1

NCI-H358 = test system: NCI-H358
Method in brief: as §1

LK-2 = test system: LK-2
Method in brief: as §1

LU99A = test system: LU99A
Method in brief: as §1

Compound: CC1(C)CCC(c2ccc(Cl)cc2)=C(CN2CCN(c3ccc(C(=O)NS(=O)(=O)c4ccc(N[C@H](CCN5CCOCC5)CSc5ccccc5)c(S(=O)(=O)C(F)(F)F)c4)cc3)CC2)C1 [Navitoclax] + CCNC(=O)c1noc(-c2cc(C(C)C)c(O)cc2O)c1-c1ccc(CN2CCOCC2)cc1 [Luminespib] (partner 0.01 µM)
- relative viability (NCI-H661; first compound 0.005 µM): 0.94
- relative viability (NCI-H661; first compound 0.01581 µM): 0.853
- relative viability (NCI-H661; first compound 0.05 µM): 0.971
- relative viability (NCI-H661; first compound 0.1581 µM): 0.775
- relative viability (NCI-H661; first compound 0.5 µM): 0.884
- relative viability (NCI-H2087; first compound 0.005 µM): 0.207
- relative viability (NCI-H2087; first compound 0.01581 µM): 0.204
- relative viability (NCI-H2087; first compound 0.1581 µM): 0.153
- relative viability (NCI-H2087; first compound 0.5 µM): 0.208
- relative viability (UMC-11; first compound 0.005 µM): 0.986
- relative viability (UMC-11; first compound 0.01581 µM): 1.07
- relative viability (UMC-11; first compound 0.05 µM): 1.13
- relative viability (UMC-11; first compound 0.1581 µM): 1.05
- relative viability (UMC-11; first compound 0.5 µM): 0.829
- relative viability (NCI-H596; first compound 0.005 µM): 0.34
- relative viability (NCI-H596; first compound 0.01581 µM): 1.14
- relative viability (NCI-H596; first compound 0.1581 µM): 0.867
- relative viability (NCI-H596; first compound 0.5 µM): 0.443
- relative viability (NCI-H1666; first compound 0.005 µM): 0.881
- relative viability (NCI-H1666; first compound 0.01581 µM): 0.969
- relative viability (NCI-H1666; first compound 0.05 µM): 0.989
- relative viability (NCI-H1666; first compound 0.1581 µM): 1.05
- relative viability (NCI-H1666; first compound 0.5 µM): 1.05
- relative viability (LCLC-97TM1; first compound 0.005 µM): 0.74
- relative viability (LCLC-97TM1; first compound 0.01581 µM): 0.8
- relative viability (LCLC-97TM1; first compound 0.05 µM): 0.733
- relative viability (LCLC-97TM1; first compound 0.1581 µM): 0.779
- relative viability (LCLC-97TM1; first compound 0.5 µM): 0.857
- relative viability (HCC-15; first compound 0.005 µM): 0.299
- relative viability (HCC-15; first compound 0.01581 µM): 0.284
- relative viability (HCC-15; first compound 0.05 µM): 0.546
- relative viability (HCC-15; first compound 0.1581 µM): 0.352
- relative viability (HCC-15; first compound 0.5 µM): 0.256
- relative viability (NCI-H1944; first compound 0.005 µM): 0.731
- relative viability (NCI-H1944; first compound 0.01581 µM): 0.717
- relative viability (NCI-H1944; first compound 0.05 µM): 0.553
- relative viability (NCI-H1944; first compound 0.1581 µM): 0.733
- relative viability (NCI-H1944; first compound 0.5 µM): 0.665
- relative viability (SK-MES-1; first compound 0.005 µM): 0.665
- relative viability (SK-MES-1; first compound 0.01581 µM): 0.985
- relative viability (SK-MES-1; first compound 0.05 µM): 0.959
- relative viability (SK-MES-1; first compound 0.1581 µM): 0.743
- relative viability (SK-MES-1; first compound 0.5 µM): 0.856
- relative viability (NCI-H1651; first compound 0.005 µM): 0.966
- relative viability (NCI-H1651; first compound 0.01581 µM): 0.971
- relative viability (NCI-H1651; first compound 0.05 µM): 0.563
- relative viability (NCI-H1651; first compound 0.1581 µM): 0.809
- relative viability (NCI-H1651; first compound 0.5 µM): 0.712
- relative viability (NCI-H2342; first compound 0.005 µM): 0.683
- relative viability (NCI-H2342; first compound 0.01581 µM): 0.747
- relative viability (NCI-H2342; first compound 0.05 µM): 0.476
- relative viability (NCI-H2342; first compound 0.1581 µM): 0.723
- relative viability (NCI-H2342; first compound 0.5 µM): 0.683
- relative viability (NCI-H650; first compound 0.005 µM): 0.794
- relative viability (NCI-H650; first compound 0.01581 µM): 0.862
- relative viability (NCI-H650; first compound 0.05 µM): 0.682
- relative viability (NCI-H650; first compound 0.1581 µM): 0.786
- relative viability (NCI-H650; first compound 0.5 µM): 0.827
- relative viability (BEN; first compound 0.005 µM): 0.269
- relative viability (BEN; first compound 0.01581 µM): 0.271
- relative viability (BEN; first compound 0.05 µM): 0.22
- relative viability (BEN; first compound 0.1581 µM): 0.266
- relative viability (BEN; first compound 0.5 µM): 0.0778
- relative viability (LC-2-ad; first compound 0.005 µM): 0.993
- relative viability (LC-2-ad; first compound 0.01581 µM): 1.16
- relative viability (LC-2-ad; first compound 0.05 µM): 0.912
- relative viability (LC-2-ad; first compound 0.1581 µM): 0.907
- relative viability (LC-2-ad; first compound 0.5 µM): 0.856
- relative viability (PC-3 [JPC-3]; first compound 0.005 µM): 0.738
- relative viability (PC-3 [JPC-3]; first compound 0.01581 µM): 0.807
- relative viability (PC-3 [JPC-3]; first compound 0.05 µM): 0.765
- relative viability (PC-3 [JPC-3]; first compound 0.1581 µM): 0.684
- relative viability (PC-3 [JPC-3]; first compound 0.5 µM): 0.724
- relative viability (NCI-H838; first compound 0.005 µM): 0.344
- relative viability (NCI-H838; first compound 0.01581 µM): 0.438
- relative viability (NCI-H838; first compound 0.05 µM): 0.37
- relative viability (NCI-H838; first compound 0.1581 µM): 0.17
- relative viability (NCI-H838; first compound 0.5 µM): 0.239
- relative viability (NCI-H322M; first compound 0.005 µM): 0.81
- relative viability (NCI-H322M; first compound 0.01581 µM): 1.12
- relative viability (NCI-H322M; first compound 0.05 µM): 1.07
- relative viability (NCI-H322M; first compound 0.1581 µM): 0.908
- relative viability (NCI-H322M; first compound 0.5 µM): 0.908
- relative viability (ChaGo-K-1; first compound 0.005 µM): 0.708
- relative viability (ChaGo-K-1; first compound 0.01581 µM): 0.593
- relative viability (ChaGo-K-1; first compound 0.05 µM): 0.306
- relative viability (ChaGo-K-1; first compound 0.1581 µM): 0.578
- relative viability (ChaGo-K-1; first compound 0.5 µM): 0.636
- relative viability (LXF-289; first compound 0.005 µM): 0.631
- relative viability (LXF-289; first compound 0.01581 µM): 0.754
- relative viability (LXF-289; first compound 0.05 µM): 0.725
- relative viability (LXF-289; first compound 0.1581 µM): 0.584
- relative viability (LXF-289; first compound 0.5 µM): 0.636
- relative viability (NCI-H358; first compound 0.005 µM): 0.418
- relative viability (NCI-H358; first compound 0.01581 µM): 0.325
- relative viability (NCI-H358; first compound 0.05 µM): 0.264
- relative viability (NCI-H358; first compound 0.1581 µM): 0.388
- relative viability (NCI-H358; first compound 0.5 µM): 0.242
- relative viability (LK-2; first compound 0.005 µM): 0.204
- relative viability (LK-2; first compound 0.01581 µM): 0.191
- relative viability (LK-2; first compound 0.05 µM): 0.202
- relative viability (LK-2; first compound 0.1581 µM): 0.191
- relative viability (LK-2; first compound 0.5 µM): 0.195
- relative viability (LU99A; first compound 0.005 µM): 0.221
- relative viability (LU99A; first compound 0.01581 µM): 0.217
- relative viability (LU99A; first compound 0.05 µM): 0.154
- relative viability (LU99A; first compound 0.1581 µM): 0.168
- relative viability (LU99A; first compound 0.5 µM): 0.274
